Data taken from patent US12077503B2, “Substituted cyclic amides and their use as herbicides” (FMC CORPORATION, priority 2015, dated 2024).

Assays:
Type in all cases: in vivo
[1] = tested on: ryegrass, Italian (Italian ryegrass, Lolium multiflorum); assay: Test A preemergence; conditions: Lolium multiflorum, pre-emergence, 240 h, 0 to 100 scale (0 no effect, 100 complete control), read-out: Plant response rating, Ryegrass, Italian; for pest or weed control at 500 g/ha: 500 g ai/ha, preemergence; for pest or weed control at 125 g/ha: Preemergence, 125 g ai/ha
How it was run: (§1)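 Preemergence directed soil spray on seeded pots, or postemergence application to plants 2–10 cm, one- to two-leaf. Solvent mixture non-phytotoxic, with surfactant. Scored ~10 d later, visually, 0–100 vs untreated.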

[2] = tested on: Galium (catchweed bedstraw, Galium aparine); assay: Test A postemergence; conditions: Galium, post-emergence, 240 h, Postemergence; for pest or weed control at 125 g/ha: 125 g ai/ha, visual rating about 10 d after treatment, read-out: Galium plant response rating (0 to 100 scale); for pest or weed control at 500 g/ha: 500 g ai/ha, visual injury, 0 to 100 scale (0 no effect, 100 complete control), approx. 10 d, read-out: Plant response rating, Galium
How it was run: as §1

Kochia (Kochia scoparia) = assay: Test A postemergence; conditions: Bassia scoparia, post-emergence, 240 h, Postemergence; for pest or weed control at 125 g/ha: 125 g ai/ha, visual rating about 10 d after treatment, read-out: Kochia plant response rating (0 to 100 scale); for pest or weed control at 500 g/ha: 500 g ai/ha, visual injury, 0 to 100 scale (0 no effect, 100 complete control), approx. 10 d, read-out: Plant response rating, Kochia
How it was run: as §1

[3] = tested on: barnyardgrass (Echinochloa crus-galli); assay: Test A postemergence; conditions: Echinochloa crus-galli, post-emergence, 240 h, Postemergence; for pest or weed control at 125 g/ha: 125 g ai/ha, visual rating about 10 d after treatment, read-out: Barnyardgrass plant response rating (0 to 100 scale, 0 no effect, 100 complete control); for pest or weed control at 500 g/ha: 500 g ai/ha, visual injury, 0 to 100 scale (0 no effect, 100 complete control), approx. 10 d, read-out: Plant response rating, Barnyardgrass
How it was run: as §1

[4] = tested on: blackgrass (Alopecurus myosuroides); assay: Test A postemergence; conditions: Alopecurus myosuroides, post-emergence, 240 h, Postemergence; for pest or weed control at 125 g/ha: 125 g ai/ha, visual rating about 10 d after treatment, read-out: Blackgrass plant response rating (0 to 100 scale); for pest or weed control at 500 g/ha: 500 g ai/ha, visual injury, 0 to 100 scale (0 no effect, 100 complete control), approx. 10 d, read-out: Plant response rating, Blackgrass
How it was run: as §1

corn (Zea mays) = assay: Test A postemergence; conditions: Zea mays, post-emergence, 240 h, Postemergence; for plant injury at 125 g/ha: 125 g ai/ha, visual rating about 10 d after treatment, read-out: Corn plant response rating (0 to 100 scale); for Corn plant response rating (crop injury, 0 = no effect, 100 = complete kill) at 500 g/ha: 500 g ai/ha, visual injury, 0 to 100 scale (0 no effect, 100 complete control), approx. 10 d
How it was run: as §1

[5] = tested on: giant foxtail (Setaria faberii); assay: Test A postemergence; conditions: Setaria faberi, post-emergence, 240 h, Postemergence; for pest or weed control at 125 g/ha: 125 g ai/ha, visual rating about 10 d after treatment, read-out: Foxtail, Giant plant response rating (0 to 100 scale); for pest or weed control at 500 g/ha: 500 g ai/ha, visual injury, 0 to 100 scale (0 no effect, 100 complete control), approx. 10 d, read-out: Plant response rating, Foxtail, Giant
How it was run: as §1

[6] = tested on: pigweed (Amaranthus retroflexus); assay: Test A postemergence; conditions: Amaranthus retroflexus, post-emergence, 240 h, Postemergence; for pest or weed control at 125 g/ha: 125 g ai/ha, visual rating about 10 d after treatment, read-out: Pigweed plant response rating (0 to 100 scale); for pest or weed control at 500 g/ha: 500 g ai/ha, visual injury, 0 to 100 scale (0 no effect, 100 complete control), approx. 10 d, read-out: Plant response rating, Pigweed
How it was run: as §1

[7] = tested on: ragweed (common ragweed, Ambrosia elatior); assay: Test A postemergence; conditions: Ambrosia artemisiifolia, post-emergence, 240 h, Postemergence; for pest or weed control at 125 g/ha: 125 g ai/ha, visual rating about 10 d after treatment, read-out: Ragweed plant response rating (0 to 100 scale); for pest or weed control at 500 g/ha: 500 g ai/ha, visual injury, 0 to 100 scale (0 no effect, 100 complete control), approx. 10 d, read-out: Plant response rating, Ragweed
How it was run: as §1

[8] = tested on: ryegrass, Italian (Italian ryegrass, Lolium multiflorum); assay: Test A postemergence; conditions: Lolium multiflorum, post-emergence, 240 h, Postemergence; for pest or weed control at 125 g/ha: 125 g ai/ha, visual rating about 10 d after treatment, read-out: Ryegrass, Italian plant response rating (0 to 100 scale); for pest or weed control at 500 g/ha: 500 g ai/ha, visual injury, 0 to 100 scale (0 no effect, 100 complete control), approx. 10 d, read-out: Plant response rating, Ryegrass, Italian
How it was run: as §1

[9] = tested on: wheat (Triticum aestivum); assay: Test A postemergence; conditions: Triticum aestivum, post-emergence, 240 h, Postemergence; for plant injury at 125 g/ha: 125 g ai/ha, visual rating about 10 d after treatment, read-out: Wheat plant response rating (0 to 100 scale); for plant injury at 500 g/ha: 500 g ai/ha, visual injury, 0 to 100 scale (0 no effect, 100 complete control), approx. 10 d, read-out: Plant response rating, Wheat
How it was run: as §1

[10] = tested on: barnyardgrass (Echinochloa crus-galli); assay: Test B flooded paddy test; conditions: Echinochloa crus-galli, 360 h, Flood, 250 g ai/ha; visually evaluated after 13 to 15 d; read-out: Plant response rating, Barnyardgrass (0 to 100 scale where 0 is no effect and 100 is complete control)
How it was run: (§2)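 Plants at 2-leaf stage flooded to 3 cm above soil, with compounds applied directly to paddy water and that depth maintained. Plants kept in greenhouse 13–15 d. Visual rating versus controls on a 0 (no effect) to 100 (complete control) scale.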

[11] = tested on: ducksalad (Heteranthera limosa); assay: Test B flooded paddy test; conditions: Heteranthera limosa, 360 h, Flood, 250 g ai/ha; visually evaluated after 13 to 15 d; read-out: Plant response rating, Ducksalad (0 to 100 scale where 0 is no effect and 100 is complete control)
How it was run: as §2

rice (Oryra sativa) = assay: Test B flooded paddy test; conditions: Oryza sativa, 360 h, Flood, 250 g ai/ha; visually evaluated after 13 to 15 d; read-out: Plant response rating, Rice (0 to 100 scale where 0 is no effect and 100 is complete control)
How it was run: as §2

[12] = tested on: sedge, umbrella (small-flower umbrella sedge, Cyperus difformis); assay: Test B flooded paddy test; conditions: Cyperus difformis, 360 h, Flood, 250 g ai/ha; visually evaluated after 13 to 15 d; read-out: Plant response rating, Sedge, Umbrella (0 to 100 scale where 0 is no effect and 100 is complete control)
How it was run: as §2

O=C1NC[C@H](c2cncs2)[C@H]1C(=O)Nc1cccc(F)c1F [Compound 1336]
40%: pest or weed control at 250 g/ha [11]
0%: pest or weed control at 500 g/ha [1] | pest or weed control at 125 g/ha [1] | pest or weed control at 125 g/ha [2] | pest or weed control at 500 g/ha [2] | pest or weed control at 125 g/ha (Kochia (Kochia scoparia)) | pest or weed control at 500 g/ha (Kochia (Kochia scoparia)) | pest or weed control at 125 g/ha [3] | pest or weed control at 500 g/ha [3] | pest or weed control at 125 g/ha [4] | pest or weed control at 500 g/ha [4] | plant injury at 125 g/ha (corn (Zea mays)) | Corn plant response rating (crop injury, 0 = no effect, 100 = complete kill) at 500 g/ha (corn (Zea mays)) | pest or weed control at 125 g/ha [5] | pest or weed control at 500 g/ha [5] | pest or weed control at 125 g/ha [6] | pest or weed control at 500 g/ha [6] | pest or weed control at 125 g/ha [7] | pest or weed control at 500 g/ha [7] | pest or weed control at 125 g/ha [8] | pest or weed control at 500 g/ha [8] | plant injury at 125 g/ha [9] | plant injury at 500 g/ha [9] | pest or weed control at 250 g/ha [10] | pest or weed control at 250 g/ha (rice (Oryra sativa)) | pest or weed control at 250 g/ha [12]

N#Cc1cc([C@H]2CNC(=O)[C@]2(O)C(=O)Nc2cccc(F)c2F)ccc1F [Compound 1374]
50%: pest or weed control at 500 g/ha [3]
0%: pest or weed control at 500 g/ha [1] | pest or weed control at 125 g/ha [1] | pest or weed control at 125 g/ha [2] | pest or weed control at 500 g/ha [2] | pest or weed control at 125 g/ha (Kochia (Kochia scoparia)) | pest or weed control at 500 g/ha (Kochia (Kochia scoparia)) | pest or weed control at 125 g/ha [3] | pest or weed control at 125 g/ha [4] | pest or weed control at 500 g/ha [4] | plant injury at 125 g/ha (corn (Zea mays)) | Corn plant response rating (crop injury, 0 = no effect, 100 = complete kill) at 500 g/ha (corn (Zea mays)) | pest or weed control at 125 g/ha [5] | pest or weed control at 500 g/ha [5] | pest or weed control at 125 g/ha [6] | pest or weed control at 500 g/ha [6] | pest or weed control at 125 g/ha [7] | pest or weed control at 500 g/ha [7] | pest or weed control at 125 g/ha [8] | pest or weed control at 500 g/ha [8] | plant injury at 125 g/ha [9] | plant injury at 500 g/ha [9] | pest or weed control at 250 g/ha [10] | pest or weed control at 250 g/ha [11] | pest or weed control at 250 g/ha [12]
20%: pest or weed control at 250 g/ha (rice (Oryra sativa))

CN1C[C@H](c2ccc(C(F)(F)F)cc2)[C@@H](C(=O)Nc2ccccc2C#N)C1=O [Compound 1379]
50%: pest or weed control at 500 g/ha [1] | pest or weed control at 500 g/ha [6] | plant injury at 500 g/ha [9]
20%: pest or weed control at 125 g/ha [1] | pest or weed control at 125 g/ha [4] | pest or weed control at 125 g/ha [6]
0%: pest or weed control at 250 g/ha (rice (Oryra sativa)) | pest or weed control at 250 g/ha [12]
100%: pest or weed control at 125 g/ha [3] | pest or weed control at 500 g/ha [3] | pest or weed control at 250 g/ha [11]
60%: pest or weed control at 500 g/ha [2] | pest or weed control at 500 g/ha (Kochia (Kochia scoparia)) | pest or weed control at 500 g/ha [7]
70%: plant injury at 125 g/ha (corn (Zea mays)) | Corn plant response rating (crop injury, 0 = no effect, 100 = complete kill) at 500 g/ha (corn (Zea mays))
80%: pest or weed control at 125 g/ha [5] | pest or weed control at 500 g/ha [5]
30%: pest or weed control at 125 g/ha (Kochia (Kochia scoparia)) | pest or weed control at 500 g/ha [4] | pest or weed control at 125 g/ha [7] | pest or weed control at 125 g/ha [8] | pest or weed control at 500 g/ha [8] | plant injury at 125 g/ha [9]
40%: pest or weed control at 125 g/ha [2]
55%: pest or weed control at 250 g/ha [10]
